The values that follow come from patent US10399991B2, “Kv1.3 inhibitors and their medical applications” (4SC AG, priority 2015, dated 2019).

Some results are limits rather than exact numbers.

For one assay, the target named is Kv1.3 (Homo sapiens (Human), UniProt P22001). Description: Patch-clamp assay for inhibitory activity on Kv1.3 (whole cell patch-clamp recording). The following applies: n≥2 per concentration. The assay is classed as cell-based. On the procedure: Patch-Clamp Assay for Inhibitory Activity on Kv1.3
Sequence of Kv1.3 (P22001 whole entry): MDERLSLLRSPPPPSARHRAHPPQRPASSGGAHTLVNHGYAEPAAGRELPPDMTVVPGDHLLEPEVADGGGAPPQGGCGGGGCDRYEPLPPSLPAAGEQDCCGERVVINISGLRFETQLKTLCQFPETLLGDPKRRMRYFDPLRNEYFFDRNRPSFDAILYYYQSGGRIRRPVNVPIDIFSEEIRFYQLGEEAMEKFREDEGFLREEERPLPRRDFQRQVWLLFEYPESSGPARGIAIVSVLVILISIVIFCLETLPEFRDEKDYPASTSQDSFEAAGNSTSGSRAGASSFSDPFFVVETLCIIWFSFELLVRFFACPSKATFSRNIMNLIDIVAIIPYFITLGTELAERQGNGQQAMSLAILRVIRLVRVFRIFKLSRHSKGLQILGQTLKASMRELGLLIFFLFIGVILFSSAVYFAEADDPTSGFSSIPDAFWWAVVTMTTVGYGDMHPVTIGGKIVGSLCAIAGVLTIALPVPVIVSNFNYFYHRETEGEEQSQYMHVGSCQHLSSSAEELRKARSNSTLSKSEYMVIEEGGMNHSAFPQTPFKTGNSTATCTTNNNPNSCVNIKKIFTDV
For a description of a Kv1.3 patch-clamp assay, see Grissmer et al., Mol. Pharmacol. 1994, 45, 1227; whole cell patch-clamp recording was performed with n≥2 individual experiments at each compound concentration using different cells. Three or more different concentrations were determined per dose response curve.
In general terms: The patch-clamp technique gives a direct electrical read-out from membranes.

Assay [1] relates to Peripheral blood mononuclear cells (PBMC). In words: T cell proliferation assay (anti-CD3 activated PBMC, BrdU based cell proliferation ELISA). The following applies: human PBMC, TRAM-34 (5 μM), 50 ng/ml anti-CD3, 48 hours; read-out: IC50(BrdU incorporation). An excerpt:
T cell proliferation assay (in analogy to Pegoraro et al., Bioorg. Med. Chem. Lett. 2009, 19, 2299)
Peripheral blood mononuclear cells (PBMC) from healthy human donors were isolated by centrifugation over a density gradient in an aqueous solution, comprising a high molecular weight polysaccharide and sodium diatrizionate, and having a density of 1.077±0.001 (Ficoll-Hypaque by Sigma-Aldrich, Germany; according to manufacturer's instructions). Purified PBMC were washed twice with PBS and resuspended in RPMI1640 culture medium (Gibco—Life Technologies) supplemented with 10% heat inactivated fetal calf serum, 1.5 mM L-glutamine, 100 U penicillin/ml, and 100 […] (all from PAA—GE Healthcare). For stimulation, PBMC were seeded at 1×10^5 cells/well, incubated with TRAM-34 (5 μM) and the test compounds for 4 h and activated with 50 ng/ml anti-CD3 (from eBioscience). After 48 hours proliferation was measured using a BrdU based cell proliferation ELISA according to the manual.

In the next assay the test system is female Dark Agouti rats. Description: Pristane-induced Arthritis (PIA) model. The assay is classed as in vivo, rat. The following applies: for Arthritic Index (AI): maximum AI=16, controls AI around 14; for amelioration of arthritis: Example 53 60 mg/kg p.o. sid, Example 34 45 mg/kg p.o. bid. On the procedure:
Pristane-induced Arthritis (PIA) Model:
Arthritis was induced in female Dark Agouti rats by intradermal injection of 150 μL/rat pristane into the base of the tail on DAY0, according to Vingsbo et al., Am. J. Pathol. 1996, 149, 1675. Compound treatment was started on DAY16 and continued until DAY30, dosing Example 53 at 60 mg/kg, p.o., sid, and Example 34 at 45 mg/kg, p.o., bid, each in a lipophilic formulation. As a positive control, methotrexate (MTX) was dosed i.p., sid, with 0.05 mg/kg, also starting DAY16. Arthritis development was monitored daily by a macroscopic scoring system for the four limbs ranging from 0 to 4 (0=no visible effects of arthritis; 1=edema and/or erythema of one digit; 2=edema and/or erythema of two joints; 3=edema and/or erythema of more than two joints; 4=severe arthritis of the entire paw and digits, associated with ankylosis and deformity of the paw.), resulting in an Arthritic Index (AI) reflecting the sum of scores of all 4 limbs per rat (maximum AI=16).

`COc1ccccc1-c1cc(=O)oc2c(C)c3occ(C)c3cc12` [Example 1, 5-(2-methoxyphenyl)-3,9-dimethyl-7H-furo[3,2-g]chromen-7-one]: the IC50 at Kv1.3 is at most 500 nM; in assay [1], 3100 to 15000 nM.
Turning to `Cc1c(-c2ccccc2F)c2cc3c(C)coc3c(C)c2oc1=O` [Example 5, 5-(2-fluorophenyl)-3,6,9-trimethyl-7H-furo[3,2-g]chromen-7-one], the results for the IC50 (against Kv1.3; in assay [1]) were at most 500 nM and 1300 to 3000 nM, respectively.
With `COc1ccccc1-c1c(C)c(=O)oc2c(C)c3occ(C)c3cc12` [Example 7, 5-(2-methoxyphenyl)-3,6,9-trimethyl-7H-furo[3,2-g]chromen-7-one], the IC50 is at most 500 nM at Kv1.3 and 1300 to 3000 nM in assay [1].
The matching figures for `Cc1c(-c2ccccc2)c2cc3c(C)coc3c(C)c2oc1=O` [Example 9, 3,6,9-trimethyl-5-phenyl-7H-furo[3,2-g]chromen-7-one]: at most 500 nM and at most 1200 nM.
The corresponding values for `CCOc1ccccc1-c1c(C)c(=O)oc2c(C)c3occ(C)c3cc12` [Example 10, 5-(2-ethoxyphenyl)-3,6,9-trimethyl-7H-furo[3,2-g]chromen-7-one] are at most 500 nM and at most 1200 nM.
Consider `Cc1c(-c2ccccc2Cl)c2cc3c(C)coc3c(C)c2oc1=O` [Example 11, 5-(2-chlorophenyl)-3,6,9-trimethyl-7H-furo[3,2-g]chromen-7-one], for which the IC50 against Kv1.3 was at most 500 nM; in assay [1] it was 1300 to 3000 nM.
The matching figures for `CCc1coc2c(C)c3oc(=O)c(C)c(-c4ccccc4)c3cc12` [Example 16, 3-ethyl-6,9-dimethyl-5-phenyl-7H-furo[3,2-g]chromen-7-one]: at most 500 nM and at most 1200 nM.
On to `Cc1c(-c2ccccc2)c2cc3c(C)coc3nc2oc1=O` [Example 25, 3,6-dimethyl-5-phenyl-7H-furo[2,3-b]pyrano[3,2-e]pyridin-7-one], for which the IC50 on Kv1.3 is at most 500 nM; in assay [1], 1300 to 3000 nM.
The matching figures for `Cc1coc2c(C)c3[nH]c(=O)c(Br)c(-c4ccccc4)c3cc12` [Example 26, 6-bromo-3,9-dimethyl-5-phenylfuro[3,2-g]quinolin-7(8H)-one]: at most 500 nM and at most 1200 nM.
The corresponding values for `Cc1c(-c2ccccc2F)c2cc3c(C)coc3c(C)c2[nH]c1=O` [Example 30, 5-(2-fluorophenyl)-3,6,9-trimethylfuro[3,2-g]quinolin-7(8H)-one] are at most 500 nM and 1300 to 3000 nM.
The corresponding values for `Cc1c(-c2ccccc2)c2cc3c(C)coc3c(C)c2[nH]c1=O` [Example 31, 3,6,9-trimethyl-5-phenylfuro[3,2-g]quinolin-7(8H)-one] are at most 500 nM and at most 1200 nM.
Consider `Cc1c(-c2ccccc2)c2cc3c(C)coc3c(C)c2n(C)c1=O` [Example 34, 3,6,8,9-tetramethyl-5-phenylfuro[3,2-g]quinolin-7(8H)-one], for which the figures for the IC50 (against Kv1.3; in assay [1]) were at most 500 nM and 1300 to 3000 nM, respectively. Besides, the “Arthritic Index (AI)” value in the assay with female Dark Agouti rats (45 mg/kg, p.o., bid, DAY16 to DAY30) is given as “around 9.1”. Also, in the assay with female Dark Agouti rats (DAY16 to DAY30), the amelioration of arthritis entry is given as “significant amelioration of arthritis”.
With `Cc1csc2c(C)c3oc(=O)cc(-c4ccccc4)c3cc12` [Example 37, 6,9-dimethyl-4-phenyl-2H-thieno[3,2-g]chromen-2-one], the IC50 is 501 to 1500 nM against Kv1.3 and 3100 to 15000 nM in assay [1].
Take `Cc1c(-c2ccccc2Cl)c2cc3c(C)coc3c(C)c2[nH]c1=O` [Example 40, 5-(2-chlorophenyl)-3,6,9-trimethylfuro[3,2-g]quinolin-7(8H)-one]: the IC50 at Kv1.3 was at most 500 nM; in assay [1] it was at most 1200 nM.
Consider `Cc1c2oc(=O)cc(-c3ccccc3)c2cc2c(C3CC3)coc12` [Example 41, 3-cyclopropyl-9-methyl-5-phenyl-7H-furo[3,2-g]chromen-7-one], for which the IC50 is at most 500 nM against Kv1.3 and 1300 to 3000 nM in assay [1].
The matching figures for `Cc1c(-c2ccccc2)c2cc3c(C)csc3c(C)c2oc1=O` [Example 43, 3,6,9-trimethyl-4-phenyl-2H-thieno[3,2-g]chromen-2-one]: at most 500 nM and 1300 to 3000 nM.
With `Cc1c(-c2ccccc2)c2cc3c(C)coc3nc2n(C)c1=O` [Example 49, 3,6,8-trimethyl-5-phenylfuro[2,3-b][1,8]naphthyridin-7(8H)-one], the figures for the IC50 (at Kv1.3; in assay [1]) were at most 500 nM and 3100 to 15000 nM, respectively.
Regarding `Cc1c(-c2cccnc2)c2cc3c(C)coc3c(C)c2oc1=O` [Example 53, 3,6,9-trimethyl-5-(pyridin-3-yl)-7H-furo[3,2-g]chromen-7-one], the IC50 was at most 500 nM against Kv1.3 and 1300 to 3000 nM in assay [1]. Moreover, the “Arthritic Index (AI)” value with female Dark Agouti rats (60 mg/kg, p.o., sid, DAY16 to DAY30) was “around 10.4”. Further, the amelioration of arthritis entry in the assay on female Dark Agouti rats (DAY16 to DAY30) is recorded as “significant amelioration of arthritis”.
Turning to `Cc1c(-c2cccnc2)c2cc3c(C)coc3c(C)c2[nH]c1=O` [Example 54, 3,6,9-trimethyl-5-(pyridin-3-yl)furo[3,2-g]quinolin-7(8H)-one], the IC50 is at most 500 nM at Kv1.3 and 3100 to 15000 nM in assay [1].
The matching figures for `Cc1c(-c2cccnc2)c2cc3c(C)coc3c(C)c2n(C)c1=O` [Example 55, 3,6,8,9-tetramethyl-5-(pyridin-3-yl)furo[3,2-g]quinolin-7(8H)-one]: 501 to 1500 nM and 3100 to 15000 nM.
`Cc1ccccc1-c1cc(=O)oc2c(C)c3occ(C)c3cc12` [Example 58, 3,9-dimethyl-5-(o-tolyl)-7H-furo[3,2-g]chromen-7-one]: the IC50 on Kv1.3 lay in the range of 501 to 1500 nM.
On the same count and under the same terms, to `Cc1ccccc1-c1c(C)c(=O)n(C)c2c(C)c3occ(C)c3cc12` [Example 59, 3,6,8,9-tetramethyl-5-(o-tolyl)furo[3,2-g]quinolin-7(8H)-one] belongs 501 to 1500 nM; to `Cc1c(-c2ccccc2Cl)c2cc3c(C)coc3c(C)c2n(C)c1=O` [Example 60, 5-(2-chlorophenyl)-3,6,8,9-tetramethylfuro[3,2-g]quinolin-7(8H)-one], at most 500 nM.
Turning to `Cc1c(-c2ccccc2F)c2cc3c(C)coc3c(C)c2n(C)c1=O` [Example 61, 5-(2-fluorophenyl)-3,6,8,9-tetramethylfuro[3,2-g]quinolin-7(8H)-one], on Kv1.3, the IC50 is at most 500 nM.
On Kv1.3, `COc1ncccc1-c1c(C)c(=O)oc2c(C)c3occ(C)c3cc12` [Example 62, 5-(2-methoxypyridin-3-yl)-3,6,9-trimethyl-7H-furo[3,2-g]chromen-7-one] gave an IC50 of 501 to 1500 nM.
The compound `COc1ccncc1-c1c(C)c(=O)oc2c(C)c3occ(C)c3cc12` [Example 63, 5-(4-methoxypyridin-3-yl)-3,6,9-trimethyl-7H-furo[3,2-g]chromen-7-one] came in with an IC50 against Kv1.3 of 1500 to 3000 nM.
Same read-out and setting: the same measure for `COc1ncccc1-c1c(C)c(=O)n(C)c2c(C)c3occ(C)c3cc12` [Example 64, 5-(2-methoxypyridin-3-yl)-3,6,8,9-tetramethylfuro[3,2-g]quinolin-7(8H)-one]: 1500 to 3000 nM.
For `CN(Cc1cnc2nc(N)nc(N)c2n1)c1ccc(C(=O)N[C@@H](CCC(=O)O)C(=O)O)cc1` [MTX, methotrexate, reference compound], the “Arthritic Index (AI)” value in the assay with female Dark Agouti rats (0.05 mg/kg, i.p., sid, from DAY16) is given as around 8.7.
